Data on two compounds can be found in patent US7820825B2, “N-substituted-azacyclylamines as histamine-3 antagonists” (Wyeth LLC, priority 2006, dated 2010).

Usually melting point stands for the temperature of the solid-liquid transition. Take `CN(C)[C@H]1CCN(C(=O)c2ccc(Cc3cn(C)c4ccccc34)cc2)C1` [Example 230, (3S)-N,N-dimethyl-1-{4-[(1-methyl-1H-indol-3-yl)methyl]benzoyl}pyrrolidin-3-amine]: the melting point is 101 to 105 °C.
Take `Cn1cc(Cc2ccc(C(=O)N3CC[C@H](N4CCCC4)C3)cc2)c2ccccc21` [Example 229, (3′S)-1-{4-[(1-methyl-1H-indol-3-yl)methyl]benzoyl}-1,3′-bipyrrolidine]: the melting point was 73 to 78 °C.
